Literature values in US20250339390A1 (priority 2018, published 2025).

Q: For O=NN(CCCl)C(=O)NCCCl [Carmustine, 1,3-bis(2-chloroethyl)-1-nitrosourea], which solubility in water is on record?
A: poorly soluble
